Measured values from patent US20240423992A1, “BIOMARKERS FOR TREATING LIVER DISORDERS WITH THR-B AGONISTS AND RELATED USES” (Madrigal Pharmaceuticals, Inc., priority 2023, published 2024).

Tested on: adults with nonalcoholic fatty liver disease (NAFLD)/presumed nonalcoholic steatohepatitis (NASH)
Test: 52-week Phase 3 trial (Example 1): thyroid hormone levels
Format: in vivo, human
Conditions: for FT3 (not on thyroxine) LSM Difference / FT3 (thyroxine-treated) LSM Difference / FT3/rT3 (not on thyroxine) LSM Difference / FT3/rT3 (thyroxine-treated) LSM Difference / FT3/rT3 LSM Difference / FT3 LSM Difference / FT4 (not on thyroxine) LSM Difference in % CFB / FT4 (not on thyroxine) LSM Difference in CFB / FT4 (thyroxine-treated) LSM Difference in % CFB / FT4 (thyroxine-treated) LSM Difference in CFB / FT4 LSM Difference in % CFB / FT4 LSM Difference in CFB / TBG (not on thyroxine) LSM Difference / TBG (thyroxine-treated) LSM Difference / TBG LSM Difference / TSH (not on thyroxine) LSM Difference / TSH (thyroxine-treated) LSM Difference / TSH LSM Difference / rT3 (not on thyroxine) LSM Difference / rT3 (thyroxine-treated) LSM Difference / rT3 LSM Difference / FT3 (not on thyroxine) LSM CFB / FT3 (thyroxine-treated) LSM CFB / FT3/rT3 (not on thyroxine) LSM CFB / FT3/rT3 (thyroxine-treated) LSM CFB / FT3/rT3 LSM CFB / FT3 LSM CFB / FT4 (not on thyroxine) LSM % CFB / FT4 (not on thyroxine) LSM CFB / FT4 (thyroxine-treated) LSM % CFB / FT4 (thyroxine-treated) LSM CFB / FT4 LSM % CFB / FT4 LSM CFB / TBG (not on thyroxine) LSM CFB / TBG (thyroxine-treated) LSM CFB / TBG LSM CFB / TSH (not on thyroxine) LSM CFB / TSH (thyroxine-treated) LSM CFB / TSH LSM CFB / rT3 (not on thyroxine) LSM CFB / rT3 (thyroxine-treated) LSM CFB / rT3 LSM CFB: Week 52
Experimental: A 52-week randomized, double-blind, placebo-controlled Phase 3 trial was conducted to evaluate the safety and effect of resmetirom, an oral, once-daily, liver-targeted thyroid hormone receptor-β selective agonist, on multiple biomarkers in adults with nonalcoholic fatty liver disease (NAFLD)/presumed nonalcoholic steatohepatitis (NASH). Patients were randomized to three double-blind arms (100 mg resmetirom, 80 mg resmetirom, or placebo) or one open-label arm (100 mg resmetirom). Common concomitant medications across the 4 arms were antidiabetes drugs (such as glucagon-like peptide-1 receptor agonists (GLP-1 RAs), metformin, pioglitazone, and sodium/glucose cotransporter-2 inhibitors (SGLT2i)) and drugs to manage dyslipidemia (statins).
Sex hormone levels after 52 weeks of resmetirom treatment are shown in Table A. Thyroid hormone levels after 52 weeks of resmetirom treatment are reported in Table B.

[1] = Resmetirom 80 mg DB vs Placebo DB
[2] = Resmetirom 100 mg DB vs Placebo DB

## CC(C)c1cc(Oc2c(Cl)cc(-n3nc(C#N)c(=O)[nH]c3=O)cc2Cl)n[nH]c1=O [Resmetirom, 2-[3,5-dichloro-4-[(6-oxo-5-propan-2-yl-1H-pyridazin-3-yl)oxy]phenyl]-3,5-dioxo-1,2,4-triazine-6-carbonitrile]
[1]
  FT3 (not on thyroxine) LSM Difference: 0.1 ng/L
  FT3 (thyroxine-treated) LSM Difference: 0.0 ng/L
  FT3/rT3 (not on thyroxine) LSM Difference: 0.05
  FT3/rT3 (thyroxine-treated) LSM Difference: 0.03
  FT3/rT3 LSM Difference: 0.05
  FT3 LSM Difference: 0.1 ng/L
  FT4 (not on thyroxine) LSM Difference in % CFB: −11.0%
  FT4 (not on thyroxine) LSM Difference in CFB: -0.1 ng/dL
  FT4 (thyroxine-treated) LSM Difference in % CFB: −10.2%
  FT4 (thyroxine-treated) LSM Difference in CFB: -0.1 ng/dL
  FT4 LSM Difference in % CFB: −10.8%
  FT4 LSM Difference in CFB: -0.1 ng/dL
  TBG (not on thyroxine) LSM Difference: -1.2 mg/L
  TBG (thyroxine-treated) LSM Difference: -0.6 mg/L
  TBG LSM Difference: -1.1 mg/L
  TSH (not on thyroxine) LSM Difference: 0.0 mIU/L
  TSH (thyroxine-treated) LSM Difference: −0.3 mIU/L
  TSH LSM Difference: −0.0 mIU/L
  rT3 (not on thyroxine) LSM Difference: -3.3 ng/dL
  rT3 (thyroxine-treated) LSM Difference: -4.4 ng/dL
  rT3 LSM Difference: -3.4 ng/dL
Resmetirom 80 mg DB
  FT3 (not on thyroxine) LSM CFB: -0.1 ng/L
  FT3 (thyroxine-treated) LSM CFB: 0.0 ng/L
  FT3/rT3 (not on thyroxine) LSM CFB: 0.04
  FT3/rT3 (thyroxine-treated) LSM CFB: 0.03
  FT3/rT3 LSM CFB: 0.04
  FT3 LSM CFB: -0.0 ng/L
  FT4 (not on thyroxine) LSM % CFB: −9.9%
  FT4 (not on thyroxine) LSM CFB: -0.1 ng/dL
  FT4 (thyroxine-treated) LSM % CFB: −6.4%
  FT4 (thyroxine-treated) LSM CFB: -0.1 ng/dL
  FT4 LSM % CFB: −9.6%
  FT4 LSM CFB: -0.1 ng/dL
  TBG (not on thyroxine) LSM CFB: -0.5 mg/L
  TBG (thyroxine-treated) LSM CFB: 1.5 mg/L
  TBG LSM CFB: 0.6 mg/L
  TSH (not on thyroxine) LSM CFB: −0.3 mIU/L
  TSH (thyroxine-treated) LSM CFB: −0.9 mIU/L
  TSH LSM CFB: −0.4 mIU/L
  rT3 (not on thyroxine) LSM CFB: -2.5 ng/dL
  rT3 (thyroxine-treated) LSM CFB: -3.8 ng/dL
  rT3 LSM CFB: -2.7 ng/dL
[2]
  FT3 (not on thyroxine) LSM Difference: 0.0 ng/L
  FT3 (thyroxine-treated) LSM Difference: -0.0 ng/L
  FT3/rT3 (not on thyroxine) LSM Difference: 0.05
  FT3/rT3 (thyroxine-treated) LSM Difference: 0.04
  FT3/rT3 LSM Difference: 0.05
  FT3 LSM Difference: 0.0 ng/L
  FT4 (not on thyroxine) LSM Difference in % CFB: −15.4%
  FT4 (not on thyroxine) LSM Difference in CFB: -0.2 ng/dL
  FT4 (thyroxine-treated) LSM Difference in % CFB: −23.0%
  FT4 (thyroxine-treated) LSM Difference in CFB: -0.3 ng/dL
  FT4 LSM Difference in % CFB: −16.1%
  FT4 LSM Difference in CFB: -0.2 ng/dL
  TBG (not on thyroxine) LSM Difference: -0.3 mg/L
  TBG (thyroxine-treated) LSM Difference: -2.4 mg/L
  TBG LSM Difference: -0.5 mg/L
  TSH (not on thyroxine) LSM Difference: −0.1 mIU/L
  TSH (thyroxine-treated) LSM Difference: 0.0 mIU/L
  TSH LSM Difference: −0.1 mIU/L
  rT3 (not on thyroxine) LSM Difference: -3.8 ng/dL
  rT3 (thyroxine-treated) LSM Difference: -5.5 ng/dL
  rT3 LSM Difference: -3.9 ng/dL
Resmetirom 100 mg DB
  FT3 (not on thyroxine) LSM CFB: -0.1 ng/L
  FT3 (thyroxine-treated) LSM CFB: -0.0 ng/L
  FT3/rT3 (not on thyroxine) LSM CFB: 0.04
  FT3/rT3 (thyroxine-treated) LSM CFB: 0.04
  FT3/rT3 LSM CFB: 0.04
  FT3 LSM CFB: -0.1 ng/L
  FT4 (not on thyroxine) LSM % CFB: −14.3%
  FT4 (not on thyroxine) LSM CFB: -0.2 ng/dL
  FT4 (thyroxine-treated) LSM % CFB: −19.2%
  FT4 (thyroxine-treated) LSM CFB: -0.2 ng/dL
  FT4 LSM % CFB: −14.9%
  FT4 LSM CFB: -0.2 ng/dL
  TBG (not on thyroxine) LSM CFB: 1.4 mg/L
  TBG (thyroxine-treated) LSM CFB: -0.2 mg/L
  TBG LSM CFB: 1.1 mg/L
  TSH (not on thyroxine) LSM CFB: −0.3 mIU/L
  TSH (thyroxine-treated) LSM CFB: −0.6 mIU/L
  TSH LSM CFB: −0.4 mIU/L
  rT3 (not on thyroxine) LSM CFB: -2.9 ng/dL
  rT3 (thyroxine-treated) LSM CFB: -4.9 ng/dL
  rT3 LSM CFB: -3.2 ng/dL
Resmetirom 100 mg OL
  FT3 (not on thyroxine) LSM CFB: -0.1 ng/L
  FT3 (thyroxine-treated) LSM CFB: -0.1 ng/L
  FT3/rT3 (not on thyroxine) LSM CFB: 0.05
  FT3/rT3 (thyroxine-treated) LSM CFB: 0.03
  FT3/rT3 LSM CFB: 0.04
  FT3 LSM CFB: -0.2 ng/L
  FT4 (not on thyroxine) LSM % CFB: −18.9%
  FT4 (not on thyroxine) LSM CFB: -0.2 ng/dL
  FT4 (thyroxine-treated) LSM % CFB: −14.8%
  FT4 (thyroxine-treated) LSM CFB: -0.2 ng/dL
  FT4 LSM % CFB: −16.1%
  FT4 LSM CFB: -0.2 ng/dL
  TBG (not on thyroxine) LSM CFB: 0.7 mg/L
  TBG (thyroxine-treated) LSM CFB: -1.0 mg/L
  TBG LSM CFB: 0.1 mg/L
  TSH (not on thyroxine) LSM CFB: −0.2 mIU/L
  TSH (thyroxine-treated) LSM CFB: 0.4 mIU/L
  TSH LSM CFB: 0.2 mIU/L
  rT3 (not on thyroxine) LSM CFB: -3.5 ng/dL
  rT3 (thyroxine-treated) LSM CFB: -3.9 ng/dL
  rT3 LSM CFB: -3.3 ng/dL
Resmetirom arms
  effect on active hormone free triiodothyronine (FT3): No effects
  effect on thyroid-stimulating hormone (TSH): No effects
  prohormone FT4 levels, change from baseline: Minimal reductions from baseline
